# Literature values, collected in patent publication US3959464A, “Microencapsulated methyl and ethyl parathion insecticide in aqueous carrier” (Pennwalt Corporation, priority 1971, dated 1976).
# Columns and labels:
# [1] = system: insects; conditions: ordinary methods of application
# [2] = system: food crops; conditions: unmodified, unencapsulated
# [3] = for effect of moisture (hydrolysis): contacted by moisture; for degradation in the field: hydrolysis and oxidation reactions
smiles,measurement,setting,value
"COP(=S)(OC)Oc1ccc([N+](=O)[O-])cc1 [methyl parathion, O,O-dimethyl-O-p-nitrophenol phosphorothioate]",period of pesticidal effectiveness in the field,[1],only several days
same,phytotoxicity,[2],chemical phytotoxicity to various food crops
same,effect of moisture (hydrolysis),[3],rendered ineffectual by hydrolysis when contacted by moisture
same,degradation in the field,[3],rapid degradation in the field
"CCOP(=S)(OCC)Oc1ccc([N+](=O)[O-])cc1 [ethyl parathion, O,O-diethyl-O-p-nitrophenol phosphorothioate]",period of pesticidal effectiveness in the field,[1],only several days
same,phytotoxicity,[2],chemical phytotoxicity to various food crops
same,effect of moisture (hydrolysis),[3],rendered ineffectual by hydrolysis when contacted by moisture
same,degradation in the field,[3],rapid degradation in the field
